Test results reported in paper PMC11462260, “Anthricin-induced hyperactive proteasome and its molecular mechanism” (Biochemistry and Biophysics Reports, 2024).

Biological target: T1, human 20S proteasome (Homo sapiens, UniProt P28072+P28074+Q99436)
T1 construct: gene PSMB6; native 20S core particle from human erythrocytes (commercial), 28 subunits of 14 types, lysine-biotinylated, on streptavidin beads
Test: pull-down on biotinylated proteasome beads, LC-MS/MS of eluate
Conditions: 20 uM anthricin, 250 pmol proteasome, 30 min, room temperature, D-PBS with 0.1 % BSA; binding site not mapped experimentally

For COc1cc([C@@H]2c3cc4c(cc3C[C@H]3COC(=O)[C@@H]32)OCO4)cc(OC)c1OC [anthricin], which “pull-down on biotinylated proteasome beads, LC-MS/MS of eluate” value is on record?
The value was “When anthricin was mixed with the proteasome-immobilized beads, a clear peak corresponding to anthricin was detected”.
